In publication PMC11761228, “Cinnamic Acid Compounds (p-Coumaric, Ferulic, and p-Methoxycinnamic Acid) as Effective Antibacterial Agents Against Colistin-Resistant Acinetobacter baumannii” (Antibiotics, 2025):
In brackets after ≈: the same amount, converted by molar mass. Several values for one entry are separate records, joined by “and”; a condition that tells them apart may be missing. Equal entries are not always repeated. Entries after “also recorded” stand apart in the source; their conditions may differ. Where two headings read alike, the source gives them in different places.

Experiments:
[1] = system: COLR-Ab isolates; assay: Broth microdilution MIC determination (CLSI); assay type: cell-based, Acinetobacter baumannii
Description: The broth microdilution method, as recommended by the CLSI, was used to determine the MIC values of COL, p-CA, FA, and p-MCA [46]. The serial two-fold dilutions of antimicrobial agents were prepared using 96-well microplates with cation-adjusted Mueller-Hinton Broth (MHB) (CAMHB, Merck KGaA, Darmstadt, Germany). Firstly, an initial concentration of 8192 µg/mL was chosen to determine the MIC values of all compounds against COLR-Ab isolates. […] The bacterial suspension was adjusted to the 0.5 McFarland standard and added to each well (final bacterial concentration: 5 × 10^5 colony forming units [CFU]/mL). Additionally, the microdilution plates included controls for bacterial growth (CAMHB + bacteria) and medium sterility (CAMHB). Microdilution plates were incubated at 35 ± 2 °C for 18–24 h. The MIC values were calculated by comparing the growth densities in the antibiotic-containing wells to those in the control wells used in each test set. Each experiment was conducted in triplicate.

[2] = system: COLR-Ab isolates; assay: Checkerboard synergy test with COL; assay type: cell-based, Acinetobacter baumannii
Description: The checkerboard synergy test, based on microdilution, was carried out to investigate the combined activity of antibiotic and cinnamic acid derivatives. The effectiveness of the two antimicrobial drugs in combination was evaluated using a 96-well microplate for each strain. The medium employed was CAMHB. […] COL was added vertically, and cinnamic acids was added horizontally to the wells. The bacterial suspension was prepared to 0.5 McFarland standard density, and the final bacterial concentration was adjusted to 5 × 10^5 CFU/mL. In total, 10 µL of bacterial inoculum was added to each well. Bacterial growth control (CAMHB + bacteria) and medium sterility control (CAMHB) were also examined for each plate. The plates were incubated at 35 ± 2 °C for 18–24 h. Each experiment was conducted in triplicate.
The fractional inhibition concentrations (FIC) of all antimicrobial agents were calculated for the evaluation of the results in accordance with the following formulae:FICA = (MIC of A in combination/MIC of A alone)FICB = (MIC of B in combination/MIC of B alone)FICindex(FICI) = FICA + FICB
FICI ≤ 0.5 was considered to indicate synergism, […] ≤ 4 was considered to indicate indifference, and FICI > 4 was considered to indicate antagonism. In the formulae, the letter “A” is used to represent COL, while “B” is used to represent one of the compounds, p-CA, FA, and p-MCA.

[3] = system: Vero cells; assay: CCK-8 cell viability assay; assay type: cell-based, African green monkey; conditions: 24 h; for Cytotoxicity (doses with cytotoxic effects): 0.78125–200 μg/mL
Description: 293T [HEK-293] (ATCC® CRL-1573), HUVEC (ATCC CRL-1730 ™, human umbilical vein endothelial cells) and Vero (ATCC® CCL-81™, African green monkey kidney epithelial cells) cells were used in this study. Cells were cultured in RPMI-1640 medium supplemented with 10% fetal bovine serum, 0.1 mM non-essential amino acids, […], 2 mM L-glutamine, and 10 μg/mL gentamicin in a humidified atmosphere of 5% CO2, 95% air at 37 °C. After growing to approximately 80% confluence, the cells were detached with 0.25% (w/v) trypsin-EDTA and then subcultured. The cells were stored in a deep freezer at −80 °C in a solution prepared with 95% medium and 5% DMSO.
Cell viability was assessed according to the manufacturer’s protocol using a Cell Counting Kit-8 (CCK-8) (KTA1020, Abbkine, Atlanta, GA, USA). The assay is based on the reduction of 2-(2-methoxy-4-nitrophenyl)-3-(4-nitrophenyl)-5-(2,4-disulfophenyl)-2H-tetrazolium monosodium salt (WST-8) by cellular mitochondrial dehydrogenase. Cells were seeded in 96-well plates at a final concentration of 5 × 10^3 cells/well in 100 μL complete culture medium and were allowed to attach for 24 h. […] Immediately after the treatment, cell viability in a single column was determined and recorded as time zero (T0). The plain medium with 1% FBS was used as a negative control, whereas ethanol was used as solvent control. Each treatment was performed in four well replicates. At the end of the incubation, the medium was gently aspirated to terminate the experiment, a total volume of 10 μL (5 mg/mL) of CCK-8 solution was added to each well and further incubated under the same conditions for 4 h. The absorbances at 450 nm were measured in a microplate reader (Thermo Labsystem, Waltham, MA, USA), using wells without cells as background. The sample readings were calculated by subtracting the average of background absorbances. The half-maximal inhibitory concentration (IC50) of each extract was derived by a nonlinear regression model (curve-fit) based on a sigmoidal dose response curve (variable slope) and was computed using Graph-Pad Prism, version 4.00 (Graph-Pad Software, San Diego, CA, USA). Cell viability was calculated using the following formula: Cell viability (%) = (ODtreatment − ODblank)/(ODcontrol − ODblank) × 100% [78].

[4] = system: A. baumannii strains; conditions: three A. baumannii isolates; cited from earlier work
[5] = system: biofilm production of A. baumannii isolates; parameters: method as in ref 51 (Mumtaz et al., 2023); conditions: ref 51 (Mumtaz et al., 2023); cited from earlier work
[6] = system: Vero cells; conditions: cited from earlier work; for IC50 (cytotoxic effects): after 48 h, ref 70 (Sevimli-Gur and Yesil-Celiktas); for IC50: read-out: IC50 (cytotoxicity), 24 h of incubation, 5 mM maximum tested dose, ref 69 (Saenglee et al.)
[7] = system: S. aureus; conditions: cited from earlier work
[8] = system: Bacillus subtilis; conditions: cited from earlier work
[9] = system: E. coli; conditions: cited from earlier work
[10] = system: Shigella dysenteriae; conditions: ref 35 (Lou et al., 2012); cited from earlier work
[11] = system: Micrococcus luteus; parameters: method as in ref 29 (Nakazono et al., 2006); conditions: ref 29 (Nakazono et al., 2006); cited from earlier work
[12] = system: Salmonella enteritidis; parameters: method as in ref 29 (Nakazono et al., 2006); conditions: ref 29 (Nakazono et al., 2006); cited from earlier work

Row | Structure (SMILES) | MIC ([1]; COLR-Ab1) [µg/mL] | MIC ([1]; COLR-Ab2) [µg/mL] | MIC ([1]; COLR-Ab3) | MIC ([1]; COLR-Ab4) [µg/mL] | MIC ([1]; COLR-Ab5) [µg/mL] | Interpretation of FICI for COL combined with the compound ([2]; COLR-Ab1) | Mean FICI for COL combined with the compound ([2]; COLR-Ab1) | Interpretation of FICI for COL combined with the compound ([2]; COLR-Ab2) | Mean FICI for COL combined with the compound ([2]; COLR-Ab2) | Interpretation of FICI for COL combined with the compound ([2]; COLR-Ab3) | Mean FICI for COL combined with the compound ([2]; COLR-Ab3) | Interpretation of FICI for COL combined with the compound ([2]; COLR-Ab4) | Mean FICI for COL combined with the compound ([2]; COLR-Ab4) | Interpretation of FICI for COL combined with the compound ([2]; COLR-Ab5) | Mean FICI for COL combined with the compound ([2]; COLR-Ab5) | Cytotoxicity (doses with cytotoxic effects) [3] | IC50 (cytotoxic effects) [6] [µg/mL] | IC50 [6] [mM] | also measured
1 | COc1cc(/C=C/C(=O)O)ccc1O [FA, ferulic acid] | 1024 (≈ 5270 µM) | 1024 (≈ 5270 µM) | 1024 µg/mL (≈ 5270 µM) | 512 (≈ 2640 µM) | 1024 (≈ 5270 µM) | S (synergistic effect) | 0.15 | S (synergistic effect) | 0.15 | S (synergistic effect) | 0.15 | I (indifferent effect) | 0.51 | S (synergistic effect) | 0.12 | no cytotoxic effects; also recorded: did not exhibit any cytotoxic effect | 134 ± 0.8 (≈ 690 µM) | > 5 | MIC ([1]; all isolates except COLR-Ab4): 1024 µg/mL (≈ 5270 µM); MIC [4]: 12.5 µg/mL (≈ 64.4 µM); Inhibition of biofilm production [5]: 49–69%
2 | O=C(O)/C=C/c1ccc(O)cc1 [p-CA, p-coumaric acid] |  |  |  |  | 128 (≈ 780 µM) | S (synergistic effect) | 0.16 | S (synergistic effect) | 0.19 | S (synergistic effect) | 0.16 | S (synergistic effect) | 0.15 | S (synergistic effect) | 0.28 | no cytotoxic effects; also recorded: did not exhibit cytotoxic effects | 163 ± 0.3 (≈ 993 µM) | > 5 | MIC ([1]; Acinetobacter baumannii, COLR-Ab1, read-out: MIC): 256 µg/mL (≈ 1560 µM); MIC ([1]; Acinetobacter baumannii, COLR-Ab2, read-out: MIC): 256 µg/mL (≈ 1560 µM); MIC ([1]; Acinetobacter baumannii, COLR-Ab3, read-out: MIC): 256 µg/mL (≈ 1560 µM); MIC ([1]; Acinetobacter baumannii, COLR-Ab4, read-out: MIC): 256 µg/mL (≈ 1560 µM); MIC ([1]; Acinetobacter baumannii, COLR-Ab5, read-out: MIC): 128 µg/mL (≈ 780 µM); MIC ([1]; Acinetobacter baumannii, all isolates except COLR-Ab5, read-out: MIC): 256 µg/mL (≈ 1560 µM); IC50 value ([3]; tested range 0.78–200 μg/mL): indeterminate; MIC ([7]; ref 35 (Lou et al., 2012)): 80 µg/mL (≈ 487 µM); MIC ([8]; ref 35 (Lou et al., 2012)): 20 µg/mL (≈ 122 µM); MIC ([9]; ref 35 (Lou et al., 2012)): 20 µg/mL (≈ 122 µM); MIC [10]: 20 µg/mL (≈ 122 µM)
3 | COc1ccc(C=CC(=O)O)cc1 [p-MCA, p-methoxycinnamic acid] | 512 (≈ 2870 µM) | 512 (≈ 2870 µM) | 256 µg/mL and 128 µg/mL | 256 (≈ 1440 µM) | 128 (≈ 718 µM) | S (synergistic effect) | 0.09 | S (synergistic effect) | 0.09 | S (synergistic effect) | 0.27 | S (synergistic effect) | 0.14 | S (synergistic effect) | 0.27 | only 200 μg/mL p-MCA induced cytotoxicity; also recorded: only at 200 μg/mL (p < 0.05) |  |  | MIC [7]: 40 µg/mL (≈ 224 µM); MIC ([7]; ref 29 (Nakazono et al., 2006)): 60 µg/mL (≈ 337 µM); MIC [8]: 40 µg/mL (≈ 224 µM); MIC [9]: 30 µg/mL (≈ 168 µM); MIC ([9]; ref 29 (Nakazono et al., 2006)): 50 µg/mL (≈ 281 µM); MIC [11]: 80 µg/mL (≈ 449 µM); MIC [12]: 60 µg/mL (≈ 337 µM)
